The results in this text go back to patent US20170334899A1, “AMINO-SUBSTITUTED ISOTHIAZOLES” (Bayer Pharma Aktiengesellschaft, priority 2014, published 2017).

A value given as a limit tells only on which side of the number the result lay.

One test deals with T1, CDK2/CycE (Homo sapiens, UniProt P24941).
T1 construct: GST; purchased ProQinase GmbH (Freiburg, Germany); host or cells: insect cells (Sf9)
Briefly: CDK2/CycE kinase assay (TR-FRET). The format is biochemical. The conditions noted are these: avg, read-out: CDK2 avg (IC50 [mol/l]). The procedure, abridged: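 Read-out is a TR-FRET 665/620 nm emission ratio from EDTA-stopped reactions detected with anti-pRB(pSer807/pSer811), Eu-labelled anti-mouse IgG and streptavidin-XL665, scaled between no-enzyme and uninhibited wells. Reaction: Sf9-expressed GST-CDK2/GST-CycE, 15 min compound preincubation, 10 μM ATP, 0.75 μM biotin-peptide, 25 min, 22° C., pH 8.0 Tris buffer.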

The test system of the next test is HeLa. Kind of test: Proliferation assay (crystal violet), HeLa. The format is cell-based. The settings on record: Homo sapiens, HeLa, 96 h, HeLa cells; 4 days incubation; crystal violet staining; read-out: IC50 inhibition of proliferation, HeLa. The method, boiled down: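 Absorbance at 595 nm of crystal-violet-stained cells after 4 days' exposure to 0.001–10 μM compound (0.5% DMSO). Values normalized to a day-0 plate (0%) and untreated cells (100%); IC50 by 4-parameter fit.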

As to `Cc1nsc(Nc2cnc(C(F)(F)F)cn2)c1C(=O)Nc1ccc(N2CCN(CC(F)F)CC2)cn1` [Example 372, N-{5-[4-(2,2-difluoroethyl)piperazin-1-yl]pyridin-2-yl}-3-methyl-5-{[5-(trifluoromethyl)pyrazin-2-yl]amino}-1,2-thiazole-4-carboxamide], the IC50 at CDK2/CycE is greater than 20000 nM; with HeLa, 1500 nM.
For `Cc1nsc(Nc2cnc(C(F)(F)F)cn2)c1C(=O)Nc1ccc(N2CCN(CC(F)(F)F)CC2)cn1` [Example 373, 3-methyl-N-{5-[4-(2,2,2-trifluoroethyl)piperazin-1-yl]pyridin-2-yl}-5-{[5-(trifluoromethyl)pyrazin-2-yl]amino}-1,2-thiazole-4-carboxamide] the same measures were greater than 20000 nM and 810 nM.
The corresponding values for `Cc1nsc(Nc2cnc(C(F)(F)F)cn2)c1C(=O)Nc1ccc(N2CCN(CCC(F)(F)F)CC2)cn1` [Example 374, 3-methyl-5-{[5-(trifluoromethyl)pyrazin-2-yl]amino}-N-{5-[4-(3,3,3-trifluoropropyl)piperazin-1-yl]pyridin-2-yl}-1,2-thiazole-4-carboxamide] are greater than 20000 nM and 920 nM.
Turning to `Cc1nsc(Nc2cnc(C(F)(F)F)cn2)c1C(=O)Nc1ccc(OC[C@@H]2CCCN(CC(F)F)C2)nc1` [Example 375, N-(6-{[(3R)-1-(2,2-difluoroethyl)piperidin-3-yl]methoxy}pyridin-3-yl)-3-methyl-5-{[5-(trifluoromethyl)pyrazin-2-yl]amino}-1,2-thiazole-4-carboxamide], the IC50 on CDK2/CycE is greater than 20000 nM; with HeLa, 300 nM.
The corresponding values for `Cc1nsc(Nc2cnc(C(F)(F)F)cn2)c1C(=O)Nc1ccc(OC[C@@H]2CCCN(CC(F)(F)F)C2)nc1` [Example 376, 3-methyl-N-(6-{[(3R)-1-(2,2,2-trifluoroethyl)piperidin-3-yl]methoxy}pyridin-3-yl)-5-{[5-(trifluoromethyl)pyrazin-2-yl]amino}-1,2-thiazole-4-carboxamide] are greater than 20000 nM and 310 nM.
The corresponding values for `Cc1nsc(Nc2cnc(C(F)(F)F)cn2)c1C(=O)Nc1ccc(OC[C@@H]2CCCN(CCC(F)(F)F)C2)nc1` [Example 377, 3-methyl-5-{[5-(trifluoromethyl)pyrazin-2-yl]amino}-N-(6-{[(3R)-1-(3,3,3-trifluoropropyl)piperidin-3-yl]methoxy}pyridin-3-yl)-1,2-thiazole-4-carboxamide] are greater than 20000 nM and 370 nM.
The corresponding values for `Cc1nsc(Nc2cnc(C(F)(F)F)cn2)c1C(=O)Nc1ccc(O[C@@H]2CCN(CC(F)F)C2)nc1` [Example 379, N-(6-{[(3R)-1-(2,2-difluoroethyl)pyrrolidin-3-yl]oxy}pyridin-3-yl)-3-methyl-5-{[5-(trifluoromethyl)pyrazin-2-yl]amino}-1,2-thiazole-4-carboxamide] are greater than 20000 nM and 620 nM.
In the case of `Cc1nsc(Nc2cnc(C(F)(F)F)cn2)c1C(=O)Nc1ccc(O[C@@H]2CCN(CC(F)(F)F)C2)nc1` [Example 380, 3-methyl-N-(6-{[(3R)-1-(2,2,2-trifluoroethyl)pyrrolidin-3-yl]oxy}pyridin-3-yl)-5-{[5-(trifluoromethyl)pyrazin-2-yl]amino}-1,2-thiazole-4-carboxamide], the results for the IC50 at CDK2/CycE and with HeLa were greater than 20000 nM and 550 nM, respectively.
For `Cc1nsc(Nc2cnc(C(F)(F)F)cn2)c1C(=O)Nc1ccc(O[C@@H]2CCN(CCC(F)(F)F)C2)nc1` [Example 381, 3-methyl-5-{[5-(trifluoromethyl)pyrazin-2-yl]amino}-N-(6-{[(3R)-1-(3,3,3-trifluoropropyl)pyrrolidin-3-yl]oxy}pyridin-3-yl)-1,2-thiazole-4-carboxamide] the same measures were greater than 20000 nM and 410 nM.
As to `Cc1nsc(Nc2cnc(C(F)(F)F)cn2)c1C(=O)Nc1ccc(O[C@H]2CCN(CC(F)F)C2)nc1` [Example 382, N-(6-{[(3S)-1-(2,2-difluoroethyl)pyrrolidin-3-yl]oxy}pyridin-3-yl)-3-methyl-5-{[5-(trifluoromethyl)pyrazin-2-yl]amino}-1,2-thiazole-4-carboxamide], the values for the IC50 at CDK2/CycE and with HeLa were greater than 20000 nM and 180 nM, respectively.
`Cc1nsc(Nc2cnc(C(F)(F)F)cn2)c1C(=O)Nc1ccc(O[C@H]2CCN(CC(F)(F)F)C2)nc1` [Example 383, 3-methyl-N-(6-{[(3S)-1-(2,2,2-trifluoroethyl)pyrrolidin-3-yl]oxy}pyridin-3-yl)-5-{[5-(trifluoromethyl)pyrazin-2-yl]amino}-1,2-thiazole-4-carboxamide]: the results for the IC50 on CDK2/CycE and in the test with HeLa were greater than 20000 nM and 280 nM, respectively.
The corresponding values for `Cc1nsc(Nc2cnc(C(F)(F)F)cn2)c1C(=O)Nc1ccc(O[C@H]2CCN(CCC(F)(F)F)C2)nc1` [Example 384, 3-methyl-5-{[5-(trifluoromethyl)pyrazin-2-yl]amino}-N-(6-{[(3S)-1-(3,3,3-trifluoropropyl)pyrrolidin-3-yl]oxy}pyridin-3-yl)-1,2-thiazole-4-carboxamide] are greater than 20000 nM and 340 nM.
The corresponding values for `Cc1nsc(Nc2cnc(C(F)(F)F)cn2)c1C(=O)Nc1ccc(O[C@@H]2CCCN(CC(F)F)C2)nc1` [Example 385, N-(6-{[(3R)-1-(2,2-difluoroethyl)piperidin-3-yl]oxy}pyridin-3-yl)-3-methyl-5-{[5-(trifluoromethyl)pyrazin-2-yl]amino}-1,2-thiazole-4-carboxamide] are greater than 20000 nM and 350 nM.
The corresponding values for `Cc1nsc(Nc2cnc(C(F)(F)F)cn2)c1C(=O)Nc1ccc(O[C@@H]2CCCN(CC(F)(F)F)C2)nc1` [Example 386, 3-methyl-N-(6-{[(3R)-1-(2,2,2-trifluoroethyl)piperidin-3-yl]oxy}pyridin-3-yl)-5-{[5-(trifluoromethyl)pyrazin-2-yl]amino}-1,2-thiazole-4-carboxamide] are greater than 20000 nM and 290 nM.
Consider `Cc1nsc(Nc2cnc(C(F)(F)F)cn2)c1C(=O)Nc1ccc(O[C@@H]2CCCN(CCC(F)(F)F)C2)nc1` [Example 387, 3-methyl-5-{[5-(trifluoromethyl)pyrazin-2-yl]amino}-N-(6-{[(3R)-1-(3,3,3-trifluoropropyl)piperidin-3-yl]oxy}pyridin-3-yl)-1,2-thiazole-4-carboxamide], for which the IC50 on CDK2/CycE was greater than 20000 nM; in the test with HeLa it was 400 nM.
For `Cc1nsc(Nc2cnc(C(F)(F)F)cn2)c1C(=O)Nc1ccc(O[C@H]2CCCN(CC(F)F)C2)nc1` [Example 388, N-(6-{[(3S)-1-(2,2-difluoroethyl)piperidin-3-yl]oxy}pyridin-3-yl)-3-methyl-5-{[5-(trifluoromethyl)pyrazin-2-yl]amino}-1,2-thiazole-4-carboxamide] the same measures were greater than 20000 nM and 370 nM.
In the case of `Cc1nsc(Nc2cnc(C(F)(F)F)cn2)c1C(=O)Nc1ccc(O[C@H]2CCCN(CC(F)(F)F)C2)nc1` [Example 389, 3-methyl-N-(6-{[(3S)-1-(2,2,2-trifluoroethyl)piperidin-3-yl]oxy}pyridin-3-yl)-5-{[5-(trifluoromethyl)pyrazin-2-yl]amino}-1,2-thiazole-4-carboxamide], the IC50 at CDK2/CycE was greater than 20000 nM; with HeLa, 310 nM.
Take `Cc1nsc(Nc2cnc(C(F)(F)F)cn2)c1C(=O)Nc1ccc(O[C@H]2CCCN(CCC(F)(F)F)C2)nc1` [Example 390, 3-methyl-5-{[5-(trifluoromethyl)pyrazin-2-yl]amino}-N-(6-{[(3S)-1-(3,3,3-trifluoropropyl)piperidin-3-yl]oxy}pyridin-3-yl)-1,2-thiazole-4-carboxamide]: the IC50 was greater than 20000 nM at CDK2/CycE and 320 nM in the test with HeLa.
Regarding `Cc1nsc(Nc2cnc(C(F)(F)F)cn2)c1C(=O)Nc1ccc(OCC2CCN(CC(F)(F)F)CC2(F)F)nc1` (centres unmarked) [Example 392, N-(6-{[3,3-difluoro-1-(2,2,2-trifluoroethyl)piperidin-4-yl]methoxy}pyridin-3-yl)-3-methyl-5-{[5-(trifluoromethyl)pyrazin-2-yl]amino}-1,2-thiazole-4-carboxamide], the IC50 on CDK2/CycE was greater than 20000 nM; in the test with HeLa it was 490 nM.
For `CCN1CCC(COc2ccc(NC(=O)c3c(C)nsc3Nc3cnc(C(F)(F)F)cn3)cn2)C(F)(F)C1` (centres unmarked) [Example 393, N-{6-[(1-ethyl-3,3-difluoropiperidin-4-yl)methoxy]pyridin-3-yl}-3-methyl-5-{[5-(trifluoromethyl)pyrazin-2-yl]amino}-1,2-thiazole-4-carboxamide] the same measures were greater than 20000 nM and 430 nM.
For `Cc1nsc(Nc2cnc(C(F)(F)F)cn2)c1C(=O)Nc1ccc(F)c(OC[C@@H]2CCCN(CCC(F)(F)F)C2)c1` [Example 395, N-(4-fluoro-3-{[(3R)-1-(3,3,3-trifluoropropyl)piperidin-3-yl]methoxy}phenyl)-3-methyl-5-{[5-(trifluoromethyl)pyrazin-2-yl]amino}-1,2-thiazole-4-carboxamide] the same measures were greater than 20000 nM and 480 nM.
The corresponding values for `CCCCN1CCC(COc2ccc(NC(=O)c3c(C)nsc3Nc3cnc(C(F)(F)F)cn3)cn2)C(F)(F)C1` (centres unmarked) [Example 396, N-{6-[(1-butyl-3,3-difluoropiperidin-4-yl)methoxy]pyridin-3-yl}-3-methyl-5-{[5-(trifluoromethyl)pyrazin-2-yl]amino}-1,2-thiazole-4-carboxamide] are greater than 20000 nM and 460 nM.
